{"source": "patent EP1614416A2", "about": "“Method for treating amyloidosis” (QUEEN'S UNIVERSITY AT KINGSTON, priority 1993, dated 1994)", "type_in_all_cases": "in vivo, mice", "key": {"[1]": {"test_system": "AA splenic amyloid deposition", "experiment": "Chronic amyloidosis (LPS + AEF, inflammatory stimulus maintained), oral treatment from day 7, Experiments 5 and 6", "procedure": "(§1) In the following experiments, a well-characterized mouse model of amyloidosis was used. In this in vivo system, animals receive an inflammatory stimulus and amyloid enhancing factor. For acute amyloidosis (i.e., short term amyloid deposition), the inflammatory stimulus is AgNO3. For chronic amyloidosis (ongoing amyloid deposition), the inflammatory stimulus is lipopolysaccharide (LPS). Amyloid deposition (AA amyloid) in the spleens of mice was measured with and without therapeutic treatment.\nTo maintain the inflammation and the blood SAA levels, and allow amyloid to be continuously deposited for the duration of a longer term experiment, the nature of the inflammatory stimulus was changed. So as to maintain the inflammation, animals received lipopolysaccharide (LPS, 20 µg)+ AEF on day 0 and LPS was given by intraperitoneal injection every 2nd day. On day seven (7), the animals were separated into two groups as described in Experiment 4. Assessment of amyloid over the course of the experiment proceeded as described in Experiment 4. The control group (triangles) continued to deposit amyloid for the entire 17 day period. Those receiving PVS apparently stopped depositing amyloid by day 14 (open circles and dashed line). The data on day 17 represent 4 animals per group as one animal was omitted from this time period. The quantity of amyloid in this particular individual was so far removed from all other data points (treated or not, it was 21%) that it is believed that this was a statistically valid procedure. If this individual is included, the curve is represented by the dotted line and the remaining open circle. It should be pointed out that animals receiving PVS began to develop a significant diarrhea as the experiment proceeded.\nIn this experiment, another sulfonated compound, ethane monosulfate was used to inhibit amyloidosis. Ethane monosulfonate, sodium salt, (EMS) is structurally the monomeric unit of PVS. Animals were given LPS + AEF as in Experiment 5, but on day seven EMS was used in the drinking water as the therapeutic agent. […]"}, "amyloid deposition": {"test_system": "amyloid deposition", "experiment": "Acute amyloidosis (AgNO3 + AEF), oral sulfonated lower aliphatics, visual examination of spleen sections, Experiment 8", "settings": "50 µM in drinking water, six days; preliminary visual analysis of spleen sections", "procedure": "Acute amyloidosis was elicited in mice with AgNO3 and amyloid enhancing factor as described in Experiment 2. Twenty-four hours later, the animals were divided into a control group and six test groups. The control group was maintained on standard laboratory mouse chow and tap water ad. lib. The test groups received standard chow but their water contained 50 µM of one of the following six compounds: ethanesulfonic acid sodium salt, 2-amino-ethanesulfonic acid sodium salt (taurine), propane-1-sulfonic acid sodium salt, ethane-1,2-disulfonic acid sodium salt, propane-1,3-disulfonic acid sodium salt, or butane-1,4-disulfonic acid sodium salt. Water intake was approximately equivalent for all groups. After six days, the animals were sacrificed and their spleens were processed as described for Experiment 2. For preliminary analysis, the spleen sections were examined visually under a microscope for differences in amyloid deposition in the treated animals versus the control animals."}, "[2]": {"test_system": "AA amyloid deposition in mouse spleen", "experiment": "Acute AA amyloidosis mouse model (AgNO3 + AEF), intraperitoneal treatment, Experiment 1", "settings": "36.5 mg/injection IP every 8 hours, mean ± S.E.M., n = 5, untreated 7.8, p ≤ 0.02, immunostained sections, image analysis", "procedure": "as §1\nAll mice were of the CD strain (Charles Rivers, Montreal, Quebec) and weighing 25-30 g. […]\nAt the termination of the experiments, the animals were sacrificed by cervical dislocation and the spleens, livers, and kidneys were fixed in 96% ethanol, 1% glacial acetic acid and 3% water as described in Lyon, A.W. et al. (\"Co-deposition of Basement Membrane Components During the Induction of Murine Splenic AA Amyloid\" Lab. Invest. 64:785-790 (1991)). […] The histologic sections viewed under polarized light were assessed by image analysis for the percent of spleen occupied by amyloid. In the case of the experiments with sucrose octasulfate, the tissues were immunostained with an antibody to the SAA protein (described in Lyon A.W. et al. Lab Invest. 64:785-790 (1991)) and the immunostained sections assessed by image analysis for the percent of tissue section occupied by amyloid."}, "[3]": {"experiment": "Viability of animals under intraperitoneal therapy, Experiment 1", "procedure": "All animals received AgNO3 (0.5 ml, 2% solution) subcutaneously in the back, and amyloid enhancing factor (AEF) 100 µg intravenously. The preparation of amyloid enhancing factor has been described previously in Axelrad, M.A. et al. (\"Further Characterization of Amyloid Enhancing Factor\" Lab. Invest. 47:139-146 (1982)). The animals were divided into several groups one of which was an untreated control group which was sacrificed six days later. The remaining animals were divided into those which received poly(vinyl sulfonic acid sodium salt) (PVS) at 50 mg, 40 mg, 20 mg, or 10mg by intraperitoneal injection every 12 hours or sucrose octasulfate ammonium salt (SOA) at 73 mg or 36.5 mg every 8 hours by IP injection. Surviving animals were sacrificed on the 5th day of treatment. In all cases the PVS or SOA was dissolved in a sterile aqueous carrier.\nAll control animals survived the experiment without incident. […] Animals receiving 36.5 mg of sucrose octasulfate/injection all survived. […] In all cases of animal deaths prior to the end of the experiments, the cause of death was uncontrolled intraperitoneal hemorrhage.\nIntraperitoneal injection was selected as providing a large membrane surface for ease of access to the circulating system. […]"}}, "note": "Structures can show the parent of a compound that is named as a salt.", "data": [{"smiles": "CCS(=O)(=O)O", "note": "[EMS, Ethane monosulfonate, sodium salt]", "values": [{"measurement": "course of splenic amyloid deposition (Figure 8)", "setting": "[1]; 6 mg/ml EMS in drinking water from day 7", "value": "stopped depositing amyloid after day 14"}, {"measurement": "gastrointestinal side effect", "setting": "[1]; EMS 2.5 or 6 mg/ml in drinking water", "value": "did not develop gastrointestinal problems"}, {"measurement": "inhibition of chronic amyloid deposition", "setting": "[1]; restated in Experiment 8 with reference to Experiment 6", "value": "has been observed to inhibit chronic amyloid deposition"}, {"measurement": "amyloid deposition versus control animals", "setting": "amyloid deposition", "value": "not observed to have less amyloid deposition than control animals"}]}, {"smiles": "O=S(=O)([O-])CCCCS(=O)(=O)[O-].[Na+].[Na+]", "note": "[butane-1,4-disulfonic acid sodium salt]", "values": [{"measurement": "amyloid deposition versus control animals", "setting": "amyloid deposition", "value": "not observed to have less amyloid deposition than control animals"}]}, {"smiles": "O=S(=O)([O-])CCS(=O)(=O)[O-].[Na+].[Na+]", "note": "[ethane-1,2-disulfonic acid sodium salt]", "values": [{"measurement": "amyloid deposition versus control animals", "setting": "amyloid deposition", "value": "less amyloid deposition than control animals"}]}, {"smiles": "O=S(=O)([O-])CCCS(=O)(=O)[O-].[Na+].[Na+]", "note": "[propane-1,3-disulfonic acid sodium salt]", "values": [{"measurement": "amyloid deposition versus control animals", "setting": "amyloid deposition", "value": "less amyloid deposition than control animals"}]}, {"smiles": "CCCS(=O)(=O)[O-].[Na+]", "note": "[propane-1-sulfonic acid sodium salt]", "values": [{"measurement": "amyloid deposition versus control animals", "setting": "amyloid deposition", "value": "less amyloid deposition than control animals"}]}, {"smiles": "N.N.N.N.N.N.N.N.O=S(=O)(O)OC[C@H]1O[C@@](COS(=O)(=O)O)(O[C@H]2O[C@H](COS(=O)(=O)O)[C@@H](OS(=O)(=O)O)[C@H](OS(=O)(=O)O)[C@H]2OS(=O)(=O)O)[C@@H](OS(=O)(=O)O)[C@@H]1OS(=O)(=O)O", "note": "[sucrose octasulfate, sucrose octasulfate ammonium salt]", "values": [{"measurement": "% Area Occupied by Amyloid", "setting": "[2]; ammonium salt", "value": "3.2% ± 0.5%"}, {"measurement": "% Area Occupied by Amyloid", "setting": "[2]; listed as Sucrose OctaSO4, ammonium salt", "value": "3.2 ± 0.5", "unit": "%"}, {"measurement": "viability of animals", "setting": "[3]; 36.5 mg/injection IP every 8 hours", "value": "all survived"}, {"measurement": "viability of animals", "setting": "[3]; 73 mg/injection IP every 8 hours, cause of death intraperitoneal hemorrhage", "value": "succumbed prior to the termination of the experiment"}]}, {"smiles": "NCCS(=O)(=O)[O-].[Na+]", "note": "[taurine sodium salt, 2-amino-ethanesulfonic acid sodium salt]", "values": [{"measurement": "amyloid deposition versus control animals", "setting": "amyloid deposition", "value": "not observed to have less amyloid deposition than control animals"}]}]}
